Experimental data as given in ChEMBL document CHEMBL1201862, “PubChem BioAssay data set” (2004).
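Interpolation was linear, between the two tested concentrations surrounding the appropriate level; five concentrations were tested over 48 hours in 96-well plates. GI50 marks 50% less growth.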 The source made the active and inactive calls. Rule as the data show it: active = GI50 up to about 1.1 µM and inactive = higher. Where a SMILES comes first, the peptide text is derived from it. [ ]: non-standard residue; d: D form. The star is where a group is joined. ξ: configuration not given here. ξPhe(4-NO2) = NC(Cc1ccc([N+](=O)[O-])cc1)C(=O)O; Boc = CC(C)(C)OC(=O)*

Columns and labels:
Test in all cases: NCI tumour cell line growth inhibition, 48 h
BT-549 = test system: BT-549
DMS-114 = test system: DMS-114
SNB-78 = test system: SNB-78
DLD-1 = test system: DLD-1
RXF 631 = test system: RXF 631
DMS-273 = test system: DMS-273
M19-MEL = test system: M19-MEL
HOP-18 = test system: HOP-18
XF498 = test system: XF498

## O=C(Nc1ccccc1)Oc1ccc(C(=S)Nc2ccc(Br)cc2)cc1
BT-549
  GI50: 12.8 µM (inactive)

## O=C(c1ccc(Cl)cc1)c1ccc(OCCCCCCCCCCOc2ccc(C(=O)c3ccc(Cl)cc3)cc2)cc1
DMS-114
  GI50: > 100 µM (inactive)
SNB-78
  GI50: > 100 µM (inactive)
DLD-1
  GI50: > 100 µM (inactive)
RXF 631
  GI50: > 100 µM (inactive)
DMS-273
  GI50: > 100 µM (inactive)

## COc1cc2cc(OC)c3cc4c(cc3c2c(OC)c1OC)OCO4
DMS-114
  GI50: 35.7 µM (inactive)
M19-MEL
  GI50: 20.8 µM (inactive)
SNB-78
  GI50: 50.2 µM (inactive)
HOP-18
  GI50: 67.6 µM (inactive)
DLD-1
  GI50: 18.1 µM (inactive)
RXF 631
  GI50: 32.5 µM (inactive)
DMS-273
  GI50: 15.1 µM (inactive)

## OC(c1ccc(F)cc1)C(F)(F)c1nc(-c2ccccc2)no1 (configuration not stated)
BT-549
  GI50: 17.8 µM (inactive)

## NC(CS)C(=O)NCCNc1ccc(NCCNC(=O)C(N)CS)c2c1C(=O)c1c(O)ccc(O)c1C2=O (configuration not stated)
DMS-114
  GI50: 0.00143 µM (active)
BT-549
  GI50: 0.327 µM (active)
XF498
  GI50: 0.0138 µM (active)
M19-MEL
  GI50: 0.0318 µM (active)
SNB-78
  GI50: 0.214 µM (active)
HOP-18
  GI50: 0.439 µM (active)
DLD-1
  GI50: 0.121 µM (active)
DMS-273
  GI50: 0.00168 µM (active)

## COc1ccc(CNc2ccn(C3OC(CO)C(O)C3O)c(=O)n2)cc1 (configuration not stated)
BT-549
  GI50: 62.5 µM (inactive)

## CN1CCCCC1CCN1CCCCC1 (configuration not stated)
BT-549
  GI50: > 100 µM (inactive)

## CC(=O)Nc1nc(C)c(S(=O)(=O)NC(=O)N2c3ccccc3CCc3ccccc32)s1
BT-549
  GI50: > 100 µM (inactive)

## Nc1ccc(Cc2ccc(N)c(C(=O)O)c2)cc1C(=O)O
BT-549
  GI50: > 100 µM (inactive)

## COc1c(C(=O)O)oc2c(OC)cccc12
DMS-114
  GI50: > 100 µM (inactive)
M19-MEL
  GI50: > 100 µM (inactive)
SNB-78
  GI50: > 100 µM (inactive)
HOP-18
  GI50: > 100 µM (inactive)
DMS-273
  GI50: > 100 µM (inactive)

## CC(C)(C)OC[C@H](O)CC#N
BT-549
  GI50: > 100 µM (inactive)

## CCOC(=O)n1c2ccccc2c(=O)n1CCO
BT-549
  GI50: > 100 µM (inactive)

## C#CCOC(=O)c1ccc(OC(C)=O)cc1
BT-549
  GI50: > 100 µM (inactive)

## O=C(/C=C/c1ccc(Br)cc1)c1ccc(NCc2nc3ccccc3[nH]2)cc1
DMS-114
  GI50: 2.99 µM (inactive)
XF498
  GI50: 5.89 µM (inactive)
M19-MEL
  GI50: 6.56 µM (inactive)
SNB-78
  GI50: 2.98 µM (inactive)
HOP-18
  GI50: > 46.2 µM (inactive)
DLD-1
  GI50: 4.83 µM (inactive)
DMS-273
  GI50: 5.7 µM (inactive)

## CSC(CC(=O)O)C(=O)O (configuration not stated)
BT-549
  GI50: > 100 µM (inactive)

## COC(=O)[C@H](Cc1ccccc1)NC(=O)N1CCN(C(=O)N[C@@H](Cc2ccccc2)C(=O)OC)CCN(C(=O)N[C@@H](Cc2ccccc2)C(=O)OC)CC1
BT-549
  GI50: > 100 µM (inactive)

## COc1ccc2c(c1)CCN=C2Cc1ccccc1CCCl
BT-549
  GI50: 44.2 µM (inactive)

## Cc1cc(C)c(-n2c(C)c(C)c(C#N)c2N)c(C)c1
BT-549
  GI50: 34.8 µM (inactive)

## CC(=O)Nc1ccc(-c2nnc(SCC(=O)Nc3ccccc3[N+](=O)[O-])o2)cc1
DMS-114
  GI50: 27.9 µM (inactive)
M19-MEL
  GI50: > 100 µM (inactive)
SNB-78
  GI50: > 100 µM (inactive)
HOP-18
  GI50: > 100 µM (inactive)
DLD-1
  GI50: > 100 µM (inactive)
DMS-273
  GI50: > 100 µM (inactive)

## Oc1ccc2c(c1)-c1c(c3cc(O)ccc3n1CCN1CCOCC1)CC2
BT-549
  GI50: 14.5 µM (inactive)

## C#CCCCC(=O)N(C(=O)C[S+]([O-])CC)c1ccccc1 (configuration not stated)
BT-549
  GI50: > 100 µM (inactive)

## CC(C)(C)OC(=O)NC(CCCCNC(=O)OCc1ccccc1)C(=O)NCCNc1ccc(NCCNC(=O)C(CCCCNC(=O)OCc2ccccc2)NC(=O)OC(C)(C)C)c2c1C(=O)c1ccccc1C2=O (configuration not stated)
BT-549
  GI50: > 71 µM (inactive)

## CCOC(=O)CN1C(=O)c2c(c(C)n(-c3ccccc3)c2C)C1=O
BT-549
  GI50: > 100 µM (inactive)

## CCc1n[nH]c(=O)[nH]1
BT-549
  GI50: > 100 µM (inactive)

## CC(=O)Nc1ccc(S(=O)(=O)[N-]C2C(=O)c3ccccc3C(=O)C2[n+]2ccccc2)cc1 (configuration not stated)
BT-549
  GI50: 3.02 µM (inactive)

## Cc1cc(S(=O)(=O)O)ccc1/N=N/c1ccc(/N=N/c2c(O)ccc3ccccc23)c(C)c1
BT-549
  GI50: > 100 µM (inactive)

## COc1cc2c(cc1OC)C(=O)/C(=C/c1cc(Cl)cc(Cl)c1)C2
BT-549
  GI50: 7.26 µM (inactive)

## c1ccc2c(NCCCCCCNc3c4ccccc4nc4ccccc34)c3ccccc3nc2c1
DMS-114
  GI50: 0.366 µM (active)
BT-549
  GI50: 1.5 µM (inactive)
XF498
  GI50: 1.41 µM (inactive)
M19-MEL
  GI50: 1.09 µM (active)
SNB-78
  GI50: 0.498 µM (active)
HOP-18
  GI50: 2.91 µM (inactive)
DLD-1
  GI50: 0.291 µM (active)
DMS-273
  GI50: 0.0214 µM (active)

## Cn1c2ccccc2c2[nH]cc3nc4ccccc4c-3c21
DMS-114
  GI50: 22.9 µM (inactive)
XF498
  GI50: 17.4 µM (inactive)
M19-MEL
  GI50: 19.7 µM (inactive)
SNB-78
  GI50: 24.5 µM (inactive)
DLD-1
  GI50: > 100 µM (inactive)
RXF 631
  GI50: 29.5 µM (inactive)
DMS-273
  GI50: 16.2 µM (inactive)

## COc1ccc(C2Cc3cc(OC)c(OC)c(OC)c3C2)cc1 (configuration not stated)
DMS-114
  GI50: 27.8 µM (inactive)
XF498
  GI50: 11.3 µM (inactive)
M19-MEL
  GI50: 41.9 µM (inactive)
SNB-78
  GI50: 72.6 µM (inactive)
HOP-18
  GI50: 72.3 µM (inactive)
DLD-1
  GI50: 44.7 µM (inactive)
DMS-273
  GI50: 36.8 µM (inactive)

## CCNC(=O)CNC(=O)C(Cc1ccc([N+](=O)[O-])cc1)NC(=O)OC(C)(C)C (configuration not stated) (Boc-[ξPhe(4-NO2)]-Gly-NHEt)
BT-549
  GI50: > 100 µM (inactive)

## O=C(O)c1ccccn1 [2-PICOLINIC ACID]
BT-549
  GI50: > 100 µM (inactive)

## Clc1ccccc1C(c1ccccc1)(c1ccccc1)n1ccnc1 [CLOTRIMAZOLE]
BT-549
  GI50: 8.05 µM (inactive)

## O=P1(NCCCl)OCCCN1CCCl (configuration not stated) [IFOSFAMIDE]
DMS-114
  GI50: 399 µM (inactive)
BT-549
  GI50: > 500 µM (inactive)
XF498
  GI50: 381 µM (inactive)
M19-MEL
  GI50: 395 µM (inactive)
SNB-78
  GI50: 384 µM (inactive)
HOP-18
  GI50: 104 µM (inactive)
DLD-1
  GI50: 380 µM (inactive)
DMS-273
  GI50: 364 µM (inactive)
